Test [1] concerns the target Human KDR (residues 790-1356) (Homo sapiens (Human), UniProt P35968). The test can be described thus: Human KDR kinase assay, HTRF KinEase (Example B-2). The format is biochemical. Particulars: protocol of Example B-2 (other compounds). A digest of the protocol: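 Human KDR residues 790-1356 (0.1 ng/well) in buffer with 5 mM MgCl2, 1 mM MnCl2, 1 mM DTT, biotinylated peptide substrate, ATP at Km (4.0 μM), 3% DMSO, 10 compound concentrations; 40 min, room temperature. EDTA stop, streptavidin-XL665/Eu-TK antibody HTRF read 665/620 nm; 4-parameter IC50.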
(Time-resolved FRET reads energy transfer from a long-lived donor to a nearby acceptor.)

In test [2] the target is Human MET (residues 956-1390) (Homo sapiens (Human), UniProt P08581). The test can be described thus: Human Met kinase assay, HTRF KinEase (Example D-2). It counts as biochemical. Particulars: protocol of Example D-2 (other compounds); read-out: c-Met IC50. A digest of the protocol:
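MET kinase domain (956-1390), 0.1 ng/well, in buffer with 5 mM MgCl2, 1 mM DTT and 1 mM MnCl2, phosphorylated a biotinylated peptide at ATP Km for 40 min at RT; 10 concentrations, 3% DMSO final. EDTA-stopped HTRF read after 60 min; IC50 from a 4-parameter logistic fit.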

The target of test [3] is KDR (phospho-KDR, VEGF165-stimulated HUVEC cells) (Homo sapiens (Human), UniProt P35968). Put plainly: KDR autophosphorylation ELISA in HUVEC cells (Example G). The format is cell-based. Particulars: cellular activity; KDR autophosphorylation ELISA in HUVEC cells. The method, boiled down: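 Cells seeded, grown 24 h at 37 °C, starved 24 h serum-free; cpd 8-pt curve, 0.3% DMSO, 1 h; VEGF165 100 ng/mL, 5 min; cold PBS wash, lysis with orthovanadate and protease/phosphatase inhibitors; pKDR ELISA; IC50 by 4-parameter logistic regression.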
A general note: In an ELISA, binding on a coated surface is turned into a signal by an enzyme label.

Test [4] has as its target Mer (phospho-Mer, MERTK-transfected 293A cells) (Homo sapiens (Human), UniProt Q12866). Put plainly: Mer autophosphorylation ELISA in transient transfected 293A cells (Example H). The format is cell-based. Particulars: cellular activity; Mer autophosphorylation ELISA in transient transfected 293A cells. A digest of the protocol:
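293A cells transiently transfected with human MERTK were treated 1 h in serum-free medium with an 8-point compound dilution (0.3% DMSO final). Lysates were assayed by phospho-Mer sandwich ELISA against a phospho-Mer standard; IC50 came from a 4-parameter logistic fit, normalised to DMSO (100%) and reference-inhibitor (0%) controls.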

Bounds are passed on as bounds.

The values below come from patent US12371428B2 (Exelixis, Inc., priority 2019, dated 2025).

Chain of KDR (phospho-KDR, VEGF165-stimulated HUVEC cells) (P35968 20-1356): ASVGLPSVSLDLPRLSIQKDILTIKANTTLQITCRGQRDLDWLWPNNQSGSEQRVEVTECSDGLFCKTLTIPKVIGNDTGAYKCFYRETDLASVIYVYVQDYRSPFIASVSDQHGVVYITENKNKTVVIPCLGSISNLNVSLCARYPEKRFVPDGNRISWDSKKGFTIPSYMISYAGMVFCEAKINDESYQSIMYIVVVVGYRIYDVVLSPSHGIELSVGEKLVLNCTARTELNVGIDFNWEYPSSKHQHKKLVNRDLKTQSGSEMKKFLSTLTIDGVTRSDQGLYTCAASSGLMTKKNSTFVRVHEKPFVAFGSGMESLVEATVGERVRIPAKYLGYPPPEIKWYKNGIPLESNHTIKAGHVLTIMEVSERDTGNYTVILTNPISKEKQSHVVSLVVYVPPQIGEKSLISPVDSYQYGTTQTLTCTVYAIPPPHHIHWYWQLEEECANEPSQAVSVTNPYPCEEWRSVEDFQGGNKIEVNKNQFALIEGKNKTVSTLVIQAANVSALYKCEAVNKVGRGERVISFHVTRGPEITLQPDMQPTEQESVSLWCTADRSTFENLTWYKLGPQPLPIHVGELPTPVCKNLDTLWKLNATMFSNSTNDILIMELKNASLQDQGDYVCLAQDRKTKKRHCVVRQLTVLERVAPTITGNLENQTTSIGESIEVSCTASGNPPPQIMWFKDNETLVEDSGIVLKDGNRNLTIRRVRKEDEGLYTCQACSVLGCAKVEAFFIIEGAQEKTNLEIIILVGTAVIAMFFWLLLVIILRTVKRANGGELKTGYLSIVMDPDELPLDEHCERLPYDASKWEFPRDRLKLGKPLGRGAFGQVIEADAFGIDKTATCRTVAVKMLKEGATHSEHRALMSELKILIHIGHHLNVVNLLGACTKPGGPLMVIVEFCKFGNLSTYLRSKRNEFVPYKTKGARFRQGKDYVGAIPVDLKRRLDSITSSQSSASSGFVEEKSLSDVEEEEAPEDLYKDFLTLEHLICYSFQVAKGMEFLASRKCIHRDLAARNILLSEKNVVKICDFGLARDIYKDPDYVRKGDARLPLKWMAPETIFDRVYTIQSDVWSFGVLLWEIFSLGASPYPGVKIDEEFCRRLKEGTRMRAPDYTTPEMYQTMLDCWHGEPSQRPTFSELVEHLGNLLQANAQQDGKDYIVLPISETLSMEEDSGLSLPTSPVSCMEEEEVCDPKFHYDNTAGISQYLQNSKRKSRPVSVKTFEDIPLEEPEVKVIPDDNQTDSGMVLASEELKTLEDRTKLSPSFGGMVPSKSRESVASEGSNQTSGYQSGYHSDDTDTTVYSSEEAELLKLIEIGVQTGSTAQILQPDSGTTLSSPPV
Chain of Human MET (residues 956-1390) (P08581 956-1390): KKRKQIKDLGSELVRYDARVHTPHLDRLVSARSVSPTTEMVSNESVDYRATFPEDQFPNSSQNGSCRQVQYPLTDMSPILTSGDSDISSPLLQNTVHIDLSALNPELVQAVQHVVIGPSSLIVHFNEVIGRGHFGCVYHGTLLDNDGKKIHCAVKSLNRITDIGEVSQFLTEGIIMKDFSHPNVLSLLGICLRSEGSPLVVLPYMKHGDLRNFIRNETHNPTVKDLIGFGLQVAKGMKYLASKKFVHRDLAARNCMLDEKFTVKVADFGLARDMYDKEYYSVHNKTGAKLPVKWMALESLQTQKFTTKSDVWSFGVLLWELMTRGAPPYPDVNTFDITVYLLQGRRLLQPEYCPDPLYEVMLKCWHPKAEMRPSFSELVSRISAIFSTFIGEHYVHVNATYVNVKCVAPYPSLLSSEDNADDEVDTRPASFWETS
Chain of Mer (phospho-Mer, MERTK-transfected 293A cells) (Q12866 21-999): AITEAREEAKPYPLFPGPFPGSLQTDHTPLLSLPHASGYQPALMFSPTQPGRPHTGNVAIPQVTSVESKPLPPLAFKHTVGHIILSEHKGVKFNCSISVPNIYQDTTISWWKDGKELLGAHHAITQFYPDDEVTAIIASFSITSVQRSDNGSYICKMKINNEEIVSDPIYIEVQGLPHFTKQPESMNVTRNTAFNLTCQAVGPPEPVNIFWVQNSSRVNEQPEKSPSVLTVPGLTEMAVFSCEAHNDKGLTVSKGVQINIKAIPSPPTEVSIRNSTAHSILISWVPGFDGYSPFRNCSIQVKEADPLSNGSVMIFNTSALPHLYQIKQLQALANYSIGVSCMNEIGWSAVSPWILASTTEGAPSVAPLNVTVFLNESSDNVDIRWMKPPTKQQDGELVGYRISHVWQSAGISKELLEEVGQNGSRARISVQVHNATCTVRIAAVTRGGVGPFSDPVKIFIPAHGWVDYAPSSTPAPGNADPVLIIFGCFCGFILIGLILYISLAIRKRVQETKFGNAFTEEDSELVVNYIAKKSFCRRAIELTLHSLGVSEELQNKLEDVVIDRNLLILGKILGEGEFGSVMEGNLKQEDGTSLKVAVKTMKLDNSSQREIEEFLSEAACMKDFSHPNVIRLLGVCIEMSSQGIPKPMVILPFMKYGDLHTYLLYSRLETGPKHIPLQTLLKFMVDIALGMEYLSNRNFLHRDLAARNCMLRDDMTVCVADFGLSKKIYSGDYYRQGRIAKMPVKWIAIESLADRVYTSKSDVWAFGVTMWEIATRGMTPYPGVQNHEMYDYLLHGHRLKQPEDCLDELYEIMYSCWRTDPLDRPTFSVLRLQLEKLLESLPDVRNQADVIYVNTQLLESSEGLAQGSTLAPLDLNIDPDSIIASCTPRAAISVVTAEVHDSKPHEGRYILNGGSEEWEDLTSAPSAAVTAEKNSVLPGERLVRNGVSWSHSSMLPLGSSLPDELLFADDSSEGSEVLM
Chain of Human KDR (residues 790-1356) (P35968 790-1356): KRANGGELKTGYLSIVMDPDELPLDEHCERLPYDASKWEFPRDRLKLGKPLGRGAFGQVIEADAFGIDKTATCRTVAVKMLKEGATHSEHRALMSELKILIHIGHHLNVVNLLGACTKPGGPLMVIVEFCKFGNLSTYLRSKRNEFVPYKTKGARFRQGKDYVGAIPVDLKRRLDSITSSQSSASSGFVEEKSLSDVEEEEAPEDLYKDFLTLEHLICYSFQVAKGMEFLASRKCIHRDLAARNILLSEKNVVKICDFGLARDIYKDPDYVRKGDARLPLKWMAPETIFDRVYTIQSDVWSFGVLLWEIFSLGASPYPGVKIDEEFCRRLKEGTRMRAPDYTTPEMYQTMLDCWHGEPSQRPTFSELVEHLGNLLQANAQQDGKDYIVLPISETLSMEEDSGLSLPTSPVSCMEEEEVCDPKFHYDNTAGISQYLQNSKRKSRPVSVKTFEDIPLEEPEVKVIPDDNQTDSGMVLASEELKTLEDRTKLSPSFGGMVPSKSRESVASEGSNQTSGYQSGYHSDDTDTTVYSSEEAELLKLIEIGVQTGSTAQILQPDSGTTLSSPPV

Broadly, the IC50 is the concentration at which inhibition is half-maximal. Turning to `COc1cc2nccc(Oc3ccc(NC(=O)c4n[nH]c(C)c(-c5ccc(F)cc5C)c4=O)cc3)c2nc1OC` [Compound 247, N-[4-[(6,7-Dimethoxy-1,5-naphthyridin-4-yl)oxy]phenyl]-5-(4-fluoro-2-methylphenyl)-6-methyl-4-oxo-1H-pyridazine-3-carboxamide], the IC50 in test [1], in test [2], in test [3] and in test [4] was less than 0.1 µM throughout.

As to `COc1cnc2c(Oc3ccc(NC(=O)c4n[nH]c(C)c(-c5ccc(F)cc5C)c4=O)cc3)ccnc2c1` [Compound 248, 5-(4-Fluoro-2-methylphenyl)-N-[4-[(7-methoxy-1,5-naphthyridin-4-yl)oxy]phenyl]-6-methyl-4-oxo-1H-pyridazine-3-carboxamide], the IC50 is more than 0.3 µM in test [1], less than 0.1 µM in test [2], more than 0.3 µM in test [3] and less than 0.1 µM in test [4].

In the case of `COc1cnc2c(Oc3ccc(NC(=O)c4n[nH]c(C)c(-c5ccc(F)cc5C)c4=O)cc3F)ccnc2c1` [Compound 249A, N-[3-Fluoro-4-[(7-methoxy-1,5-naphthyridin-4-yl)oxy]phenyl]-5-(4-fluoro-2-methylphenyl)-6-methyl-4-oxo-1H-pyridazine-3-carboxamide], the IC50 in test [1] is more than 0.3 µM; in test [2] it was less than 0.1 µM; in test [3] it was 0.1 to 0.3 µM; in test [4] it was less than 0.1 µM.

As for `COc1cnc2c(Oc3ccc(NC(=O)c4nn(C)c(C)c(-c5ccc(F)cc5)c4=O)cc3F)ccnc2c1` [Compound 250, N-[3-Fluoro-4-[(7-methoxy-1,5-naphthyridin-4-yl)oxy]phenyl]-5-(4-fluorophenyl)-1,6-dimethyl-4-oxopyridazine-3-carboxamide], the IC50 was more than 0.3 µM in test [1], less than 0.1 µM in test [2], more than 0.3 µM in test [3] and less than 0.1 µM in test [4].

Consider `COc1cnc2c(Oc3ccc(NC(=O)c4nn(C)c(C)c(-c5ccc(F)cc5)c4=O)cc3)ccnc2c1` [Compound 251, 5-(4-Fluorophenyl)-N-[4-[(7-methoxy-1,5-naphthyridin-4-yl)oxy]phenyl]-1,6-dimethyl-4-oxopyridazine-3-carboxamide], for which the IC50 in test [1] was more than 0.3 µM; in test [2], less than 0.1 µM; in test [3] it was more than 0.3 µM; in test [4] it was less than 0.1 µM.

Take `COCCOc1nc2c(Oc3ccc(NC(=O)c4n[nH]c(C)c(-c5ccc(F)cc5C)c4=O)cc3F)ccnc2cc1OC` [Compound 252, N-[3-Fluoro-4-[[7-methoxy-6-(2-methoxyethoxy)-1,5-naphthyridin-4-yl]oxy]phenyl]-5-(4-fluoro-2-methylphenyl)-6-methyl-4-oxo-1H-pyridazine-3-carboxamide]: the IC50 in test [1] was 0.1 to 0.3 µM; in test [2], less than 0.1 µM; in test [3] it was less than 0.1 µM; in test [4], less than 0.1 µM.

With `COc1cnc2c(Oc3ccc(NC(=O)c4c(C)ncn(-c5ccc(F)cc5)c4=O)cc3F)ccnc2c1` [Compound 256, N-[3-Fluoro-4-[(7-methoxy-1,5-naphthyridin-4-yl)oxy]phenyl]-1-(4-fluorophenyl)-4-methyl-6-oxopyrimidine-5-carboxamide], the IC50 in test [1] is 0.1 to 0.3 µM; in test [2] it was less than 0.1 µM; in test [3], more than 0.3 µM; in test [4], less than 0.1 µM.

`COc1cnc2c(Oc3ccc(NC(=O)c4c(C)nc(C)n(-c5ccc(F)cc5)c4=O)cc3F)ccnc2c1` [Compound 257, N-[3-Fluoro-4-[(7-methoxy-1,5-naphthyridin-4-yl)oxy]phenyl]-1-(4-fluorophenyl)-2,4-dimethyl-6-oxopyrimidine-5-carboxamide]: the IC50 in test [1], in test [2], in test [3] and in test [4] was less than 0.1 µM each time.

Regarding `COc1cnc2c(Oc3ccc(NC(=O)c4c(C)nc(C)n(-c5ccc(F)cc5)c4=O)cc3)ccnc2c1` [Compound 258, 1-(4-Fluorophenyl)-N-[4-[(7-methoxy-1,5-naphthyridin-4-yl)oxy]phenyl]-2,4-dimethyl-6-oxopyrimidine-5-carboxamide], the IC50 in test [1] was less than 0.1 µM; in test [2], less than 0.1 µM; in test [3], 0.1 to 0.3 µM; in test [4], less than 0.1 µM.

As for `COc1cc2nccc(Oc3ccc(NC(=O)c4cn(CC(F)(F)F)c(C)c(-c5ccc(F)cc5)c4=O)cc3F)c2cc1OC` [Compound 259, N-[4-(6,7-Dimethoxyquinolin-4-yl)oxy-3-fluorophenyl]-5-(4-fluorophenyl)-6-methyl-4-oxo-1-(2,2,2-trifluoroethyl)pyridine-3-carboxamide], the IC50 in test [1] was 0.1 to 0.3 µM; in test [2], 0.1 to 0.3 µM; in test [3] it was 0.1 to 0.3 µM; in test [4] it was less than 0.1 µM.

In the case of `COc1cnc2c(Oc3ccc(NC(=O)c4cn(CC(F)(F)F)c(C)c(-c5ccc(F)cc5)c4=O)cc3F)ccnc2c1` [Compound 261, N-[3-Fluoro-4-[(7-methoxy-1,5-naphthyridin-4-yl)oxy]phenyl]-5-(4-fluorophenyl)-6-methyl-4-oxo-1-(2,2,2-trifluoroethyl)pyridine-3-carboxamide], the IC50 in test [1] was more than 0.3 µM; in test [2], less than 0.1 µM; in test [3], more than 0.3 µM; in test [4] it was less than 0.1 µM.

With `COc1cc2nccc(Oc3ccc(NC(=O)c4ncc(C)n(-c5ccc(F)cc5)c4=O)cc3)c2nc1OC` [Compound 262, N-[4-[(6,7-Dimethoxy-1,5-naphthyridin-4-yl)oxy]phenyl]-4-(4-fluorophenyl)-5-methyl-3-oxopyrazine-2-carboxamide], the IC50 in test [1], in test [2], in test [3] and in test [4] was less than 0.1 µM in each case.
